Measurements as given in ChEMBL document CHEMBL1201862, “PubChem BioAssay data set” (2004).
Activity calls are given as the source filed them.

Assays:
[1] = inhibitors of control Renilla luciferase reporter, dose response, counter-screen for Shn3 3'UTR targeting project, Clone20-Shn3RL cells, dual-Glo, cherry-pick, set 2 (AID 720724); assay type: functional, cell-based; conditions: Dual-Go Shn3RL
[2] = control 3'UTR Renilla luciferase suppression, dose response, counter-screen for Shn3 inhibitor project, cell-based, Clone20-Shn3RL, cherry-picked (AID 624133); assay type: functional
[3] = reduction of Shn3 3'UTR firefly luciferase signal, dose response, Schnurri-3 inhibitor project, cell-based, Clone20 osteoblasts, cherry-pick, set 2 (AID 720490); assay type: functional;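 further: actives lower the luminescence signal as inhibitors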
[4] = Shn3 3'UTR reporter inhibitors, dose response, cell-based, Clone20 osteoblasts, firefly luciferase, cherry-picked (AID 624132); assay type: functional;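 further: firefly luciferase luminescence from reporter carrying the Shn3 3'UTR in osteoblasts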
[5] = system: HEK293; assay: HEK293T cell cytotoxicity, dose response, cytotoxicity control, ATP luminescence, cherry-pick samples (AID 687005); assay type: functional, cell-based; conditions: Homo sapiens;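 further: cells exposed to compound for 48 hours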
[6] = HEK293 Cytotoxicity Assay Measured in Cell-Based System Using Plate Reader - 7071-01_Inhibitor_Dose_CherryPick_Activity_Set2.; assay type: functional
[7] = system: Streptococcus; assay: Group A Streptococcus viability loss, dose response, counter-screen for streptokinase expression inhibitor project, luminescence, BacTiterGlo (AID 1915); assay type: functional, organism-based;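 further: potency for reduction of bacterial viability or growth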
[8] = biological target: Disintegrin and metalloproteinase domain-containing protein 17 (Homo sapiens, UniProt P78536); assay: ADAM17 protease inhibitors, dose response, counter-screen for ADAM10 exosite inhibitor project, biochemical, quenched FRET substrate (AID 743253)
[9] = biological target: T1, Streptokinase A (Streptococcus pyogenes serotype M1, UniProt P10520); assay: S. pyogenes streptokinase expression inhibitors, potency, dose response, plasminogen activation absorbance, OD405 (AID 1914); assay type: functional, Streptococcus pyogenes M1 GAS;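 further: secreted streptokinase activity via plasminogen activation per viability signal from cell pellet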
T1 sequence (P10520 whole entry): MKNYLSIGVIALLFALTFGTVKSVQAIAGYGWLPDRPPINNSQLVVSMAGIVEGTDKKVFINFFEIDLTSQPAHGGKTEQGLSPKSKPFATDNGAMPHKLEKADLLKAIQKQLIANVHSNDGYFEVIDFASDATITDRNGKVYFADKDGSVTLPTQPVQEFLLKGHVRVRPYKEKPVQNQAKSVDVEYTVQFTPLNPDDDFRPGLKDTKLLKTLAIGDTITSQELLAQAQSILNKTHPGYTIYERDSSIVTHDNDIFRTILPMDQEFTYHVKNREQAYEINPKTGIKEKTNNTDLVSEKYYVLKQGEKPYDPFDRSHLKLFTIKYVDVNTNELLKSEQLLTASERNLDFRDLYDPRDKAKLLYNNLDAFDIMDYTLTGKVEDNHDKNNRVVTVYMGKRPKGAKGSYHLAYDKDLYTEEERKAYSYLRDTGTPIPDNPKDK

[10] = system: Streptococcus sp. 'group A'; assay: growth inhibition of control SK(-) GAS strain, dose response, counter-screen for streptokinase expression inhibitor project, luminescence, kanamycin, BacTiterGlo, confirmation (AID 1900); assay type: functional, organism-based
[11] = system: INS1; assay: beta cell apoptosis inhibitors, cytokine rescue, dose response, luminescence, retest (AID 449756); assay type: functional, cell-based; conditions: Rattus norvegicus;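 further: cell death triggered by IL-1 beta plus TNF-alpha plus IFN-gamma mixture; protective hits raise ATP signal compared with cytokine alone wells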
[12] = cells
[13] = biological target: T2, Oxysterols receptor LXR-beta (Homo sapiens, UniProt P55055); assay type: functional, cell-based;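 further: Cell-based luminescence dose-response assay of agonist activity at LXR, run as a confirmatory counterscreen to a daf-12 agonist screen; HEK293 cells with Gal4-LXR fusion and GAL4-driven luciferase reporter; agonist potency from rising luciferase signal of a Gal4-LXR reporter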
T2 sequence (P55055 whole entry): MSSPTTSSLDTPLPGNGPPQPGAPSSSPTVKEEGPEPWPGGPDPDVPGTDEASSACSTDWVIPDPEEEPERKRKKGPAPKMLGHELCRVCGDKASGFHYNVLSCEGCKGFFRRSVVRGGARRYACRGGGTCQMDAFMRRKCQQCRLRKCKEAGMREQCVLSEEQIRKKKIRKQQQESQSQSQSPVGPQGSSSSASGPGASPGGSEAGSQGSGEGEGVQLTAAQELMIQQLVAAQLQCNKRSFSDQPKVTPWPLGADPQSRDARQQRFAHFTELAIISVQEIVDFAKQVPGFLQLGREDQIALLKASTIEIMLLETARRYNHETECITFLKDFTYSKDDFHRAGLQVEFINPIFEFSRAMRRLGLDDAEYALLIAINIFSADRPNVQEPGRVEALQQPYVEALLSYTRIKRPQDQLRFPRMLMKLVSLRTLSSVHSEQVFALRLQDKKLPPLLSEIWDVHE

[14] = cells; remark: listed apart in the source
[15] = biological target: T3, Methionyl-tRNA synthetase, putative (Trypanosoma brucei brucei, UniProt Q38C91); assay type: functional, Trypanosoma brucei brucei strain 927/4 GUTat10.1
T3 sequence (Q38C91 whole entry): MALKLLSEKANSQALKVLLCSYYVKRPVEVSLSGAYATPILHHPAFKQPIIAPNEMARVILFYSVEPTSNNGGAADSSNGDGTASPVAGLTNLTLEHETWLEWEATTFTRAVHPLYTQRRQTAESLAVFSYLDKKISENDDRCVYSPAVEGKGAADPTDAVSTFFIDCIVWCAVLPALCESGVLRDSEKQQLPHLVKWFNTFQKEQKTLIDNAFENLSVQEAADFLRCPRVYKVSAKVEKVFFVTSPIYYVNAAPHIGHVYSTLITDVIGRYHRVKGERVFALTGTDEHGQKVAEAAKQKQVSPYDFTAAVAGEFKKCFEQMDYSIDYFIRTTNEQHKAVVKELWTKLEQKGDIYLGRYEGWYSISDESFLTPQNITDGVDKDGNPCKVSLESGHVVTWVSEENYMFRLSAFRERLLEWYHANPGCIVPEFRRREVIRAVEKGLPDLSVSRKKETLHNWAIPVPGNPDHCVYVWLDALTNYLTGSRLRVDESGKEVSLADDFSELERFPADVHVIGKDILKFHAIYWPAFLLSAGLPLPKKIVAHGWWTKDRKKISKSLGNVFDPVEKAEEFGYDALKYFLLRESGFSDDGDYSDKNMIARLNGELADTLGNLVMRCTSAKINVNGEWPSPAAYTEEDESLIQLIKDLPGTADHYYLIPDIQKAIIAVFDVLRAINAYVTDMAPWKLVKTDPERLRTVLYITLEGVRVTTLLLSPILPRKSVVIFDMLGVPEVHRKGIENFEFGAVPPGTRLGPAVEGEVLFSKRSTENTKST

[16] = biological target: T3, Methionyl-tRNA synthetase, putative; assay type: functional, Trypanosoma brucei brucei strain 927/4 GUTat10.1; remark: listed apart in the source
[17] = Counterscreen for inhibitors of Trypanosoma brucei methionyl tRNA synthetase (MetRS): Luminescence-based cell-based high throughput dose response assay to identify compounds that are cytotoxic to Jurkat human T lymphocyte cells.; assay type: functional
[18] = Late stage counterscreen for inhibitors of Trypanosoma brucei methionyl tRNA synthetase (MetRS): Luminescence-based cell-based high throughput dose response assay to identify compounds that are cytotoxic to Jurkat human T lymphocyte cells.; assay type: functional
[19] = cells; conditions: HEK293
[20] = endogenous miR-122 level reduction, dose response, orthogonal assay for miR-122 inhibitor project, cell-based, Huh7, RT-qPCR, dry powder (AID 687041); assay type: functional
[21] = cytotoxicity in COV434 cells, dose response, cytotoxicity control for PAX8 inhibitor project, cell-based, plate reader, dry powder, SA7 (AID 743145); assay type: functional
[22] = biological target: Paired box protein Pax-8 (Homo sapiens, UniProt Q06710); assay: inhibitors of PAX8-driven TPO luciferase reporter, dose response, RMG-I cells, cherry-pick (AID 687027); assay type: functional, cell-based;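 further: luciferase reporter driven by Pax8 target thyroperoxidase promoter measured by SteadyGlo luminescence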
[23] = PAX2 cell-based inhibition, dose response, selectivity assay for PAX8 inhibitor project, plate reader, dry powder samples (AID 743048); assay type: functional;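 further: HEK293 cells carrying a WT1 promoter luciferase reporter driven by expressed Pax2; potency is for inhibition of Pax2 driven reporter signal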
[24] = PAX5 activity inhibitors, dose response, selectivity assay for PAX8 inhibitor project, cell-based, plate reader, dry powder samples (AID 743047); assay type: functional;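 further: HEK293 cells carrying a Pax5 driven CD19 promoter luciferase reporter; potency of inhibitors that lower reporter luminescence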
[25] = cytotoxicity dependent on PAX8, dose response, cell-based, plate reader, dry powder (AID 743049); assay type: functional
[26] = biological target: NAD-dependent protein deacylase sirtuin-5, mitochondrial (Homo sapiens, UniProt Q9NXA8); assay: SIRT5 desuccinylase inhibitors, dose response, biochemical, fluorescence imaging, cherry-pick, set 5 (AID 720591);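 further: desuccinylation of succinyl peptide AMC substrate read as fluorescence after trypsin release; potency of inhibitors that lower fluorescence and may act on trypsin instead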
[27] = biological target: E3 ubiquitin-protein ligase UHRF1 (Homo sapiens, UniProt Q96T88); assay: Counterscreen for inhibitors of 5-meCpG-binding domain protein 2 (MBD2): TRFRET-based biochemical high throughput dose response assay to identify inhibitors of binding of ubiquitin-like with PHD and ring finger domains 1 (UHRF1) to methylated oligonucleotide.
[28] = MITF: Counter assay: A375 proliferation Measured in Cell-Based System Using Plate Reader - 2084-03_Inhibitor_Dose_DryPowder_Activity_Set8.; assay type: functional; conditions: A-375
[29] = MITF Orthogonal Assay: SK-MEL-5 CTG Assay Measured in Cell-Based System Using Plate Reader - 2084-02_Inhibitor_Dose_DryPowder_Activity_Set7.; assay type: functional
[30] = TRPM1 promoter luciferase reporter signal decrease, dose response, MITF inhibitor project, cell-based, SK-MEL-5, dry powder, set 8 (AID 624430); assay type: functional
[31] = inhibitors of fibronectin matrix deposition, dose response, AH1F cells, Alexa488-FN fluorescence, cherry-picks (AID 1035475); assay type: functional, cell-based
[32] = HepG2 cell cytotoxicity, dose response, cytotoxicity control, cherry-picks, set 5 (AID 1053118); assay type: functional, cell-based
[33] = HEK293 cell cytotoxicity, dose response, cytotoxicity control, cherry-picks, set 5 (AID 1053117); assay type: functional, cell-based
[34] = P. falciparum Dd2 growth inhibitors, dose response, SYBR Green, cherry-picked samples (AID 1159567); assay type: functional, cell-based
[35] = HepG2 cell cytotoxicity, dose response, cytotoxicity control, cherry-picked samples (AID 1159577); assay type: functional, cell-based
[36] = A549 cell cytotoxicity, dose response, cytotoxicity control, cherry-picks, 26 µM top dose (AID 1053119); assay type: functional, cell-based
[37] = biological target: Potassium channel subfamily K member 3 (Homo sapiens, UniProt O14649); assay: TASK1 (KCNK3) potassium channel inhibitors, SAR follow-up, CHO cells, FluxOR thallium flux (AID 652212); assay type: functional
[38] = biological target: C-X-C chemokine receptor type 4 (Homo sapiens, UniProt P61073); assay: SAR analysis of small molecule antagonists of the CXCR6 receptor using a CXCR4 receptor luminescent beta-arrestin counterscreen.; assay type: functional
[39] = biological target: C-C chemokine receptor type 6 (Homo sapiens, UniProt P51684); assay: SAR analysis of small molecule antagonists of the CXCR6 receptor using a CCR6 receptor luminescent beta-arrestin counterscreen.; assay type: functional
Sequence of C-C chemokine receptor type 6 (P51684 whole entry): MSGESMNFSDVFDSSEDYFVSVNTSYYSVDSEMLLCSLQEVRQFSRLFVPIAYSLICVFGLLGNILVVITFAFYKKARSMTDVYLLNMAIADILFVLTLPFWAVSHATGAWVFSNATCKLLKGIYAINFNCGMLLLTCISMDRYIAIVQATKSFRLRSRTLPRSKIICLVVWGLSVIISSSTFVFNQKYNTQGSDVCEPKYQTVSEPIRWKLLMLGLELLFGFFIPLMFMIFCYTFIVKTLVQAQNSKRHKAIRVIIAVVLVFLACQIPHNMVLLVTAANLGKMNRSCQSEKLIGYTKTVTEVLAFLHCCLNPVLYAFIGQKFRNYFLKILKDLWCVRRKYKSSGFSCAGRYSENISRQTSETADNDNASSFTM

Sequence of Disintegrin and metalloproteinase domain-containing protein 17 (P78536 whole entry, the tested form may be a part): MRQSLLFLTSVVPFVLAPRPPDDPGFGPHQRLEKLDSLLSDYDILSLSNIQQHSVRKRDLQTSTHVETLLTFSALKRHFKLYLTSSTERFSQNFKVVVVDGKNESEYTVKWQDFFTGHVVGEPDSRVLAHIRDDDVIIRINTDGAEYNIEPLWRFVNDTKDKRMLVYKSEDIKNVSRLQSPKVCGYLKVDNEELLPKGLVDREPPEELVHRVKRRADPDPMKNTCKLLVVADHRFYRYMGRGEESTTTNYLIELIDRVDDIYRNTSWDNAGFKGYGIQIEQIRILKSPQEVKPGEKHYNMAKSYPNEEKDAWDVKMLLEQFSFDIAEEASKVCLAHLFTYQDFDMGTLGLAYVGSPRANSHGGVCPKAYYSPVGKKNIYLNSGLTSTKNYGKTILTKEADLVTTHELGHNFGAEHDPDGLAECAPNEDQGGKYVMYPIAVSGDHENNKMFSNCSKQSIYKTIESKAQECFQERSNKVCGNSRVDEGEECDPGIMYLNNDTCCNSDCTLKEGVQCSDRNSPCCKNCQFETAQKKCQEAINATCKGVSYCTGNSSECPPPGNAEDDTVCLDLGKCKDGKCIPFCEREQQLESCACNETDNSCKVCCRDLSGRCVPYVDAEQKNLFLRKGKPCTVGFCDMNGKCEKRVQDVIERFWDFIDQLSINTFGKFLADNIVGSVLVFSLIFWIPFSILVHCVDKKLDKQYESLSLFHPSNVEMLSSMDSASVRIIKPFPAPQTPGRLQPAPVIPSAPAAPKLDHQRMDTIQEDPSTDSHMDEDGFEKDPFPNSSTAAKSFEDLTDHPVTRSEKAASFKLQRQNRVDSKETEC
Sequence of E3 ubiquitin-protein ligase UHRF1 (Q96T88 whole entry, the tested form may be a part): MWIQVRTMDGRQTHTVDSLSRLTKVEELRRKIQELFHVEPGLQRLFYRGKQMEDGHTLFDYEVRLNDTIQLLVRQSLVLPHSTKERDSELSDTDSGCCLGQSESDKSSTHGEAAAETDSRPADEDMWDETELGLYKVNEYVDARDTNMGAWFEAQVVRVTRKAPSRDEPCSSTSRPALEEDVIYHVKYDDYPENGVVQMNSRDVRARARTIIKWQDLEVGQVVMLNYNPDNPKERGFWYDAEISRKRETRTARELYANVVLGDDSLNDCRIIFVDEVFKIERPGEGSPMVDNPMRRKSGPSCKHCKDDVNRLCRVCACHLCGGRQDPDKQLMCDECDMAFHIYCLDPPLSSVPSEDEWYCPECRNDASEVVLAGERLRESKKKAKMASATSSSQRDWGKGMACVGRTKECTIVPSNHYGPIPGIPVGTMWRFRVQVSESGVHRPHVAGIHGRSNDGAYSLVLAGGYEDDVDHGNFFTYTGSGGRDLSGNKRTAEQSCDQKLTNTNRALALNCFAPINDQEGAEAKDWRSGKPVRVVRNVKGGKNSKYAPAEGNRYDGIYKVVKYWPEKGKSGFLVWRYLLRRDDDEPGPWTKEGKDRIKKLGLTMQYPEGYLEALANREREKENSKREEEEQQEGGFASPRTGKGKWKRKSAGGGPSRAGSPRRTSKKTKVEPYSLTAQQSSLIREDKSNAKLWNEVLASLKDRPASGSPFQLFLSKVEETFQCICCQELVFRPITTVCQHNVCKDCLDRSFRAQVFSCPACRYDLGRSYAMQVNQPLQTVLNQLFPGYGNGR
Sequence of NAD-dependent protein deacylase sirtuin-5, mitochondrial (Q9NXA8 whole entry, the tested form may be a part): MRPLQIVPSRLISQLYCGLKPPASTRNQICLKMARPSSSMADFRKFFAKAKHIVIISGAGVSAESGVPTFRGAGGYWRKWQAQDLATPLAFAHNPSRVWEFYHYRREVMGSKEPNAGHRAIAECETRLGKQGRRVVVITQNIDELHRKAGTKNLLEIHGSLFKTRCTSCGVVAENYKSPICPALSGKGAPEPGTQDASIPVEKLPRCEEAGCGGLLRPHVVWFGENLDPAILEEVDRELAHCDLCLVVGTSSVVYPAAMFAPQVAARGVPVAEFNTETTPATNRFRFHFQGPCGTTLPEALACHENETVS
Sequence of C-X-C chemokine receptor type 4 (P61073 whole entry): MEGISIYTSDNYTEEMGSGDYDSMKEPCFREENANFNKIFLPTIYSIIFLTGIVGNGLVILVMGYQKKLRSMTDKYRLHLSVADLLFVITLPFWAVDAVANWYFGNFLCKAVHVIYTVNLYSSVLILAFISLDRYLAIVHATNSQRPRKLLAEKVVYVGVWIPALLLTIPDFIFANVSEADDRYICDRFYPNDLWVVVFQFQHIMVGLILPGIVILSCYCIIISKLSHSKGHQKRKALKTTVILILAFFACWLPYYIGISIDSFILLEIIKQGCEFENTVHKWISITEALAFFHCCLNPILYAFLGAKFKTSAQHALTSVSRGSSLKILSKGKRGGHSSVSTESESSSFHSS
Sequence of Paired box protein Pax-8 (Q06710 whole entry): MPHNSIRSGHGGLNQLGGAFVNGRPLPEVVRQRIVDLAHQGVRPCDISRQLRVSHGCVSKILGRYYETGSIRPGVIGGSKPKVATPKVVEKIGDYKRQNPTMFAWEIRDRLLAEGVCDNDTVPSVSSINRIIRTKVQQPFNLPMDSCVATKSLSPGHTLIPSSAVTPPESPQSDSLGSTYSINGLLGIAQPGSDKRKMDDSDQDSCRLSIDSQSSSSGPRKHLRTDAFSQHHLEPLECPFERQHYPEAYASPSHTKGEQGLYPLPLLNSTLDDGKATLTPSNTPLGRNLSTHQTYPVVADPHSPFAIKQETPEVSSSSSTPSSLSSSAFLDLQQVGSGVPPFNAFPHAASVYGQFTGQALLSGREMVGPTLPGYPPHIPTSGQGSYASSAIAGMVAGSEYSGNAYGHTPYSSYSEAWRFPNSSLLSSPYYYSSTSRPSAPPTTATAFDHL
Sequence of Potassium channel subfamily K member 3 (O14649 whole entry): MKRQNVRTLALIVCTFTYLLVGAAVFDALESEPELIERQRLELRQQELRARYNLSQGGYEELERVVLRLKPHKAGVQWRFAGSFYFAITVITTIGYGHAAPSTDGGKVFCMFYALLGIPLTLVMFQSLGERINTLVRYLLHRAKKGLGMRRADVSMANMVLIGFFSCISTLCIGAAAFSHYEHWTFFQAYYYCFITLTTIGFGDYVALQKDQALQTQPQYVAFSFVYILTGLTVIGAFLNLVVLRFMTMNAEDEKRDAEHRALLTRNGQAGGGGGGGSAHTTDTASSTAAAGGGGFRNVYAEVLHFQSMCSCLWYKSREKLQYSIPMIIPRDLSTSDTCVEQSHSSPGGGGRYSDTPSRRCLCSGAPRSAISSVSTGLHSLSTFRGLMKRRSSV

CN(c1ccccc1)S(=O)(=O)c1cccc(NC(=O)CSc2nncs2)c1
AC50 [1]: 4.3 µM (active) | AC50 [2]: 15.8 µM (active) | AC50 [3]: 2.6 µM (active) | AC50 [4]: 1.44 µM (active)

CCOC(=O)CNC(=O)CSc1ncnc2c1cnn2-c1ccc(OC)cc1
AC50 [5]: 34.4 µM (active) | AC50 [6]: 34.4 µM (active)

O=C(NNc1ccccc1Br)C(O)(c1cccc(C(F)(F)F)c1)c1cccc(C(F)(F)F)c1
EC50 [7]: 9.39 µM (active) | IC50 [8]: > 69.5 µM (inactive) | EC50 [9]: 2.13 µM (active) | EC50 [10]: 3.48 µM (active) | AC50 [11]: 6.89 µM (active)

CSc1ccccc1-c1nnc(-c2ccccc2)o1
EC50 [12]: > 67.5 µM (inactive) | EC50 [13]: > 67.5 µM (inactive)

C#CCOc1ccc(C2C(C#N)=C(N)Oc3cc(O)ccc32)cc1 (centres undefined)
AC50 [14]: 3.61 µM (active)

O=C(NCc1nc2ccccc2[nH]1)C1=C[C@@H](c2csc3ccccc23)C[C@@H](OCCCCO)O1
IC50 [15]: 1.91 µM (active) | IC50 [16]: 1.36 µM (active) | IC50 [17]: 80.2 µM (inactive) | IC50 [18]: 64.4 µM (inactive)

CC(=O)Oc1ccc(C(=O)Nc2cc(C)on2)cc1
AC50 [19]: > 52 µM (inactive)

S=C(Nc1ccc(Cl)cc1Cl)NC1CCCCC1
AC50 [20]: 2.25 µM (active)

C[C@@H]1CN([C@H](C)CO)C(=O)CCCn2nncc2CO[C@H]1CN(C)Cc1ccc(Oc2ccccc2)cc1
AC50 [21]: 0.00024 µM (active) | AC50 [22]: 22.1 µM (active) | AC50 [23]: 47.9 µM (active) | AC50 [24]: > 70 µM (inactive) | AC50 [25]: > 70 µM (inactive)

CCOC(=O)C1=C[C@@H](c2ccccc2)N(S(=O)(=O)c2ccc(C)cc2)[C@H]1c1ccccc1Cl
AC50 [26]: > 30 µM (inactive)

CCCCn1nnnc1C1(C)CCC(=O)N1CCCn1ccnc1 (centres undefined)
IC50 [27]: > 43.7 µM (inactive)

O=C1C=C(NCc2ccc(Cl)cc2)C(=O)c2ccccc21
AC50 [28]: > 70 µM (inactive) | AC50 [29]: 53.3 µM (active) | AC50 [30]: > 70 µM (inactive)

CO[C@@H]1CN(C)C(=O)c2ccc(NC(=O)c3ccc(-c4ccccc4)cc3)cc2OC[C@@H](C)NC[C@H]1C
AC50 [31]: 19.6 µM (active) | AC50 [32]: 10.8 µM (active) | AC50 [33]: 12.1 µM (active) | AC50 [34]: 8.67 µM (active) | AC50 [35]: 10.3 µM (active) | AC50 [36]: 12.3 µM (active)

Cc1cccc(C(=O)Nc2cccc(C(=O)Nc3ccccc3)c2)c1
IC50 [37]: 1.14 µM (active)

COc1cc(C(=O)NC2CC3CCCC(C2)N3CC(=O)Nc2ccc(Cl)cc2)cc(OC)c1OC (centres undefined)
IC50 [38]: > 79 µM (inactive) | IC50 [39]: > 79 µM (inactive)
